According to patent publication US20090004166A1, “Carrier For Enternal Administration” (priority 2004, published 2009):

System: Sprague-Dawley rats
Conditions: oral gavage, 5 mg/kg, heat source ~45° C.
Experimental: The effect was measured by comparison of times taken for a rat to withdraw its paw in response to heat when medicated and unmedicated with morphine.
Animals: Nine conscious Sprague-Dawley rats weighing between 350-450 grams each Treatment groups: • 1. […] Morphine with TPm: morphine HCl (14%) in a carrier containing water (59%) and a tocopheryl phosphate mixture (27%) (TPm). The TPm contained mono-tocopheryl phosphate and di-tocopheryl phosphate.
Formulations 2 and 3 were diluted with water and the final morphine concentration was made up to 5 mg/ml. […] This liquid formulation was then delivered to the animals by oral gavage (tube into stomach).
The experiment used nine rats that were divided into three groups. […]
Analgesic testing was performed at 1, 2, 4 and 6 hours and at each time point withdrawal latency was measured three times on each rat (with at least five minutes rest if using the same paw).
A plantar analgesiometer designed for rapid and efficient screening of analgesia levels in small laboratory animals was used. The device applied a heat source (˜45° C. from an infrared light) to the animal's hindpaw and the time taken to withdraw the paw from the heat source was measured (paw withdrawal latency). […] The animal was placed on a hot plate, confined by a clear acrylic cage which surrounds the plate and paw withdrawal response was monitored. […]

CN1CC[C@]23c4c5ccc(O)c4O[C@H]2[C@@H](O)C=C[C@H]3[C@H]1C5.O=S(=O)(O)O [morphine sulphate]
paw withdrawal latency (analgesia): increase in latency
